According to patent US20140364500A1, “URSOLIC ACID SALTS FOR TREATING DIABETES AND OBESITY” (priority 2012, published 2014):

Columns and labels:
[1] = Merck Index, 11th Edition, page 1556; cited from earlier work
[2] = Solubility determination in water by HPLC assay; format: physicochemical; conditions: filtered, filtrate assayed by HPLC
Experimental: The average AUC of the three runs was used to determine the concentration.
Agilent 1100 HPLC; Eclipse XDB-C18 50×4.6 mm 1.8 micron column; Gradient—5 min 95% water (0.10% TFA) to 95% acetonitrile (0.07% TFA); 1.5 mL/min; UV Detection @ 210 nm.

- detection by HPLC assay in filtrate of water saturated with the substance [2]: not detected
SMILES: C[C@H]1[C@H](C)CC[C@]2(C(=O)O)CC[C@]3(C)C(=CC[C@@H]4[C@@]5(C)CC[C@H](O)C(C)(C)[C@@H]5CC[C@]43C)[C@H]12 [Ursolic acid]
- solubility in water (literature citation) [1]: insoluble in water
